Experiments:
FGFR3 = target: T1, FGFR3 (Homo sapiens, UniProt P22607); test: FGFR biochemical assay (LanthaScreen TR-FRET), FGFR3; details: ATP 35 μM, FGFR3 0.1 nM
T1 construct: purchased Carna
Protocol: (§1) The following procedure was used to test the compounds described herein: • Dilute the test compounds to 100× of the final desired highest concentration in reaction by 100% DMSO. • Perform a serial dilution in a 384-well source plate by transferring 15 μL to 30 μL of […] DMSO in the next well and so forth for a total of 10 concentrations. • Dispense 100 nL of compound solution each well from the source plate to a 384-well assay plate in duplicates by Echo (Labcyte). • Prepare a solution of 2× FGFR enzyme (Carna) in kinase buffer (50 mM HEPES, pH 7.5, 10 mM MgCl2, 4 mM DTT, 0.01% Tween-20 and 0.01% BSA). The final concentration of FGFR1/2/3/4 is 0.01. 0.01, 0.1 and 1 nM, respectively. • Add 5 μL of kinase solution to each well of the compound-containing assay plate, except for low control wells without enzyme (add 5 μL of 1× kinase buffer instead). • Shake the plate and incubate at room temperature for 10 minutes (for Example 1) (or 60 min for the remaining Examples in Table 4). • Prepare the substrate solution of Fluorescein-Poly GT (Invitrogen) and ATP (Sigma) in 1× kinase reaction buffer at 2-fold of the final concentration of each reagent desired in the assay (final concentration of ATP is 28, 22, 35 and 238 μM for FGFR1/2/3/4 respectively; Fluorescein-Poly GT is fixed at 20 nM). • Add 5 μL of substrate solution to each well of the assay plate to initiate the kinase reaction. • Shake the plate shortly and incubate at room temperature for 30 minutes. • Prepare 2× detection solution in Antibody Dilution Buffer (LanthaScreen® Tb—PY20 Antibody Kit, Invitrogen). • Add 10 μL of detection solution to each well of the assay plate to stop the reaction. • Mix briefly with centrifuge and incubate at room temperature for 60 minutes before reading on a microplate reader. • Collect data on Envision with excitation at 340 nm and emission at 520 nm and 495 nm. • Calculate Ratio of RFU 520 nm/RFU 495 nm. Convert Ratio values to percent inhibition values (Percent inhibition=(max−sample Ratio)/(max−min)*100) where “min” means the Ratio of no enzyme control and “max” means the Ratio of DMSO control. • Data are analyzed and curve fitting is performed by XLFit Excel add-in version 5.4.0.8. The IC50 calculation equation is: Y=Bottom+(Top−Bottom)/(1+(IC50/X)^HillSlope.

FGFR2 = target: T2, FGFR2 (Homo sapiens, UniProt P21802); test: FGFR biochemical assay (LanthaScreen TR-FRET), FGFR2; details: ATP 22 μM, FGFR2 0.01 nM
T2 construct: purchased Carna
Protocol: as §1

FGFR1 = target: T3, FGFR1 (Homo sapiens, UniProt P11362); test: FGFR biochemical assay (LanthaScreen TR-FRET), FGFR1; details: ATP 28 μM, FGFR1 0.01 nM
T3 construct: purchased Carna
Protocol: as §1

SNU-16 (FGFR2) = test: Cellular proliferation assay (CellTiter-Glo), SNU-16; format: cell-based; details: Homo sapiens, SNU-16 cells, 72 hours
Protocol: (§2) Compounds were tested proliferation assay in SNU-16, KATO-III, SNU-1, AGS, AN3CA, MFE280, MKN45, KLE, RT112-84, RT4, T24, UM-UC-3, KMS11, OPM-2, RAPI8226, U266, SUM 52PE, MCF7 and BaF3 cell lines. Test compounds were prepared in 10 mM DMSO stock solutions, add […] 1000× stock solution to 98 μL growth medium to get […] final concentration, 3-fold 9-points dilution was performed. Cell lines suspension of 95 μL were seeded into 96-well plate and incubated at 37° C. for 24 hours, add 5 μL 20× compounds solutions to 96-well plate according to the plate map with Echo550 liquid handler. Final DMSO concentration in each well is 0.1%, cell lines were incubated at 37° C. for 72 hours, then equilibrate the assay plate to room temperature before measurement, add 50 μL of CellTiter-Glo® Reagent into each well, mix contents for 2 minutes on an orbital shaker to induce cell lysis and incubate at room temperature for 10 minutes to stabilize luminescent signal, Chemiluminescence was then read on an EnVision reader. Inhibition Rate (Inh. %) was calculated relative to vehicle (DMSO) treated control wells using following formula: Inhibition Rate (Inh %)=100−(RLU compound−RLU blank)/(RLU control−RLU blank)*100%, Data were analyzed using Graphpad Prism 7.0, fitting to a 4-parameter equation to generate concentration response curves.

RT4 (FGFR3) = test: Cellular proliferation assay (CellTiter-Glo), RT4; format: cell-based; details: Homo sapiens, RT-4, RT4 cells, 72 hours
Protocol: as §2

[1] = enzyme pre-incubation 10 minutes (for Example 1)

T3 sequence (P11362 22-822): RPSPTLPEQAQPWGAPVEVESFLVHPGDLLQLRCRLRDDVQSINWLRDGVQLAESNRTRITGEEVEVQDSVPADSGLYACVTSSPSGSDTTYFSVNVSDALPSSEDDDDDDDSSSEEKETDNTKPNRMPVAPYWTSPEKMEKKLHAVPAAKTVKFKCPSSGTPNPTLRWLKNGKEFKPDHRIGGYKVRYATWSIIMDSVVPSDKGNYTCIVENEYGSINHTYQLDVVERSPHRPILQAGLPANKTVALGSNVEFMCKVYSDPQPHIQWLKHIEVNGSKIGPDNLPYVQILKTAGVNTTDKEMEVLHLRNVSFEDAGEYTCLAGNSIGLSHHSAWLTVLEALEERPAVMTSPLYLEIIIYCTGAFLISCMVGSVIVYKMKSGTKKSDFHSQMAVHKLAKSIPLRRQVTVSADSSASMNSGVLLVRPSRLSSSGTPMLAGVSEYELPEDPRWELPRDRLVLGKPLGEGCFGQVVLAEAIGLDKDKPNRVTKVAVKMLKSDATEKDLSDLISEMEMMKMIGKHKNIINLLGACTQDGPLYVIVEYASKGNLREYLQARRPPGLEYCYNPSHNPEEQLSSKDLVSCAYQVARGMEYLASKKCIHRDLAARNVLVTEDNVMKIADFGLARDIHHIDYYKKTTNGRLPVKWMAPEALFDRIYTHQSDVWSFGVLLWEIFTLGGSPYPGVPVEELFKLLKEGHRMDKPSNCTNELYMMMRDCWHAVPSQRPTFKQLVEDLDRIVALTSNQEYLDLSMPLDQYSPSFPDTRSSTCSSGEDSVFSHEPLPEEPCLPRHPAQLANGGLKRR
T2 sequence (P21802 22-821): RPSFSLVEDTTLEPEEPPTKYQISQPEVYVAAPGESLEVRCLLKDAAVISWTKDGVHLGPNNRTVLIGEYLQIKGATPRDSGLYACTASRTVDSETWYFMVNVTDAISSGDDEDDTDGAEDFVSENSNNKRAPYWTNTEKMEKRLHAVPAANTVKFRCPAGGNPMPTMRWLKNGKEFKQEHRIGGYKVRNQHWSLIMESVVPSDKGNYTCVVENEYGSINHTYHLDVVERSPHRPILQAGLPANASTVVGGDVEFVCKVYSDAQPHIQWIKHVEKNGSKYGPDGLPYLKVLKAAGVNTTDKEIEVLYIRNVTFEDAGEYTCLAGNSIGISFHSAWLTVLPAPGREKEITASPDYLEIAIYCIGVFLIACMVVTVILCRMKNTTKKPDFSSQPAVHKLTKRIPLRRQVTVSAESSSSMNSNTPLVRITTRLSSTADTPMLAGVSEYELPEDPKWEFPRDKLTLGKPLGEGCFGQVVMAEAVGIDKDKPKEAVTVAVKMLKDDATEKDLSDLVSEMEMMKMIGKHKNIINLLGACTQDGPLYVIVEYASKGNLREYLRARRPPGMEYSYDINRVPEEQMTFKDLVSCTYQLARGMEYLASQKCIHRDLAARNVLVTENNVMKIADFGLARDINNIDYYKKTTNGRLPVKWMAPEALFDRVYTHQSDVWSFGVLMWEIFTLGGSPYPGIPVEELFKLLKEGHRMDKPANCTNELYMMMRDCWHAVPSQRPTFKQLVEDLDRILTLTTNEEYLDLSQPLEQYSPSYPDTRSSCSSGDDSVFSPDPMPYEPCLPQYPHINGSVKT
T1 sequence (P22607 23-806): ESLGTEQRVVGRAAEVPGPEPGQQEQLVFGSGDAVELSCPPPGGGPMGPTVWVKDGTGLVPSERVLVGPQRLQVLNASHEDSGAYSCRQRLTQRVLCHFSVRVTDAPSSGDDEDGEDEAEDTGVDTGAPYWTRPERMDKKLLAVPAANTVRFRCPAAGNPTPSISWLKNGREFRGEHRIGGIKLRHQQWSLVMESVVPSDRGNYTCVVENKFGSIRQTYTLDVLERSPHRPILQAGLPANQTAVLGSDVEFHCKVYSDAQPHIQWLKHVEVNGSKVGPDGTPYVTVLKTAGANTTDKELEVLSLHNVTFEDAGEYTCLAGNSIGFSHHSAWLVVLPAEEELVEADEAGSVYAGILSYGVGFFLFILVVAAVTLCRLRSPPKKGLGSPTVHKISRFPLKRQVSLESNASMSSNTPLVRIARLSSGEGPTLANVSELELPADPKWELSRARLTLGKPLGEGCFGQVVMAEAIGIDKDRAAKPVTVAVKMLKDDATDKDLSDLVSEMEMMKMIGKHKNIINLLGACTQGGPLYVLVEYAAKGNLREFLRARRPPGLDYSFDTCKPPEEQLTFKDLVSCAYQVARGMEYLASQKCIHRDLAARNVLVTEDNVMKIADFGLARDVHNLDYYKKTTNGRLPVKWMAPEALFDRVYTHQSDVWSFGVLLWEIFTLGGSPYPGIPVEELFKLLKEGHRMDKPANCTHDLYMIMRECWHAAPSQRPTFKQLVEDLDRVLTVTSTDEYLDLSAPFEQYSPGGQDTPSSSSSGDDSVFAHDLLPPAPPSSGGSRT

SMILES | IC50 (FGFR3; [1]) [µM] | IC50 (FGFR2; [1]) [µM] | IC50 (FGFR1; [1]) [µM] | IC50 (FGFR3; enzyme pre-incubation 60 min) [µM] | IC50 (SNU-16 (FGFR2)) [µM] | IC50 (FGFR2; enzyme pre-incubation 60 min) [µM] | IC50 (FGFR1; enzyme pre-incubation 60 min) [µM] | IC50 (RT4 (FGFR3)) [µM]
C=CC(=O)Nc1ccc(-c2c(-c3ccc(Oc4cccc(C)n4)cc3)c(C(N)=O)n3cccnc23)cc1 [Example 1] | 0.01 to 0.1 | < 0.01 | 0.1 to 1 |  |  |  |  | 
C=C(F)C(=O)Nc1ccc(-c2c(-c3ccc(Oc4nccc(C)n4)c(F)c3)c(C(N)=O)n3cc(C)cnc23)cc1 [Example 2] |  |  |  | 0.01 to 0.1 | < 0.01 | < 0.01 | 0.1 to 1 | 0.01 to 0.1
C=C(F)C(=O)Nc1ccc(-c2c(-c3ccc(Oc4nccc(C)n4)c(F)c3)c(C(N)=O)n3cc(C)ncc23)cc1 [Example 3] |  |  |  | 0.01 to 0.1 | < 0.01 | < 0.01 | 0.1 to 1 | 0.01 to 0.1
C=C(F)C(=O)Nc1ccc(-c2c(-c3ccc(Oc4nccc(C)n4)c(F)c3)c(C(N)=O)n3ccc(C)nc23)cc1 [Example 4] |  |  |  | 0.1 to 1 | 0.01 to 0.1 | 0.01 to 0.1 | 0.1 to 1 | 0.1 to 1
C=C(F)C(=O)Nc1ccc(-c2c(-c3ccc(Oc4nccc(C)n4)c(F)c3)c(C(N)=O)n3cc(C4CC4)cnc23)cc1 [Example 5] |  |  |  | 0.01 to 0.1 | 0.01 to 0.1 | 0.01 to 0.1 | 0.1 to 1 | 0.01 to 0.1
C=C(F)C(=O)Nc1ccc(-c2c(-c3ccc(Oc4nccc(C)n4)cc3)c(C(N)=O)n3cc(N4CCN(C)CC4)cnc23)cc1 [Example 6] |  |  |  | 0.01 to 0.1 |  | < 0.01 | 0.1 to 1 | 
C=C(F)C(=O)Nc1ccc(-c2c(-c3ccc(Oc4nccc(C)n4)c(F)c3)c(C(N)=O)n3cc(CC)cnc23)cc1 [Example 7] |  |  |  | 0.1 to 1 |  | < 0.01 | > 1 | 0.01 to 0.1
C=C(F)C(=O)Nc1ccc(-c2c(-c3ccc(Oc4nccc(C)n4)c(F)c3)c(C(N)=O)n3cc(N4CCOCC4)cnc23)cc1 [Example 8] |  |  |  | 0.01 to 0.1 | < 0.01 | < 0.01 | > 1 | 0.01 to 0.1
C=C(F)C(=O)Nc1ccc(-c2c(-c3ccc(Oc4nccc(C)n4)c(F)c3)c(C(N)=O)n3cc(-c4cnn(C)c4)cnc23)cc1 [Example 9] |  |  |  | 0.1 to 1 |  | < 0.01 | 0.1 to 1 | 
C=C(F)C(=O)Nc1ccc(-c2c(-c3ccc(Oc4nccc(C)n4)c(F)c3)c(C(N)=O)n3cc(C#CC)cnc23)cc1 [Example 10] |  |  |  | 0.1 to 1 |  | 0.01 to 0.1 | 0.1 to 1 | 
C=C(F)C(=O)Nc1ccc(-c2c(-c3ccc(Oc4nccc(C)n4)c(F)c3)c(C(N)=O)n3cccnc23)cc1 [Example 11] |  |  |  | 0.01 to 0.1 |  | < 0.01 | 0.1 to 1 | 
C=C(F)C(=O)Nc1ccc(-c2c(-c3ccc(Oc4nccc(C)n4)c(F)c3)c(C(N)=O)n3ccccc23)cc1 [Example 12] |  |  |  | 0.01 to 0.1 |  | < 0.01 | 0.1 to 1 | 
CC#CC(=O)Nc1ccc(-c2c(-c3ccc(Oc4nccc(C)n4)c(F)c3)c(C(N)=O)n3cc(C)cnc23)cc1 [Example 13] |  |  |  | 0.01 to 0.1 | < 0.01 | < 0.01 | 0.1 to 1 | 0.01 to 0.1
Cc1cnc2c(-c3ccc(NC(=O)/C=C/CN(C)C)cc3)c(-c3ccc(Oc4nccc(C)n4)c(F)c3)c(C(N)=O)n2c1 [Example 14] |  |  |  | 0.01 to 0.1 | < 0.01 | < 0.01 | 0.1 to 1 | 0.01 to 0.1
C=C(F)C(=O)Nc1ccc(-c2c(-c3ccc(Oc4nccc(C)n4)cc3Cl)c(C(N)=O)n3cc(C)cnc23)cc1 [Example 15] |  |  |  | 0.1 to 1 |  | 0.1 to 1 | > 1 | 
C=C(F)C(=O)Nc1ccc(-c2c(-c3ccc(Oc4nccc(C)n4)c(F)c3)c(C(N)=O)n3cc(Cl)cnc23)cc1 [Example 16] |  |  |  | 0.1 to 1 |  | 0.01 to 0.1 | 0.1 to 1 | 
C=C(F)C(=O)N1CCc2cc(-c3c(-c4ccc(Oc5nccc(C)n5)c(F)c4)c(C(N)=O)n4cc(C)cnc34)ccc21 [Example 17] |  |  |  | < 0.01 | < 0.01 | < 0.01 | 0.1 to 1 | 0.01 to 0.1
C=C(F)C(=O)Nc1ccc(-c2c(-c3ccc(Oc4nccc(C)n4)c(F)c3)c(C(N)=O)n3cc(C)cnc23)c(F)c1 [Example 18] |  |  |  | < 0.01 |  | < 0.01 | 0.01 to 0.1 | 
C=C(C)C(=O)Nc1ccc(-c2c(-c3ccc(Oc4nccc(C)n4)c(F)c3)c(C(N)=O)n3cc(C)cnc23)c(F)c1 [Example 19] |  |  |  | 0.1 to 1 |  | 0.01 to 0.1 | > 1 | 
C=C(F)C(=O)Nc1ccc(-c2c(-c3ccc(Oc4nccc(C)n4)cc3)c(C(N)=O)n3cc(C)cnc23)cc1 [Example 20] |  |  |  | 0.01 to 0.1 | < 0.01 | < 0.01 | 0.1 to 1 | 0.01 to 0.1
Cc1cnc2c(-c3ccc(NC(=O)/C(F)=C/CN(C)C)cc3)c(-c3ccc(Oc4nccc(C)n4)c(F)c3)c(C(N)=O)n2c1 [Example 21] |  |  |  | 0.01 to 0.1 |  | 0.01 to 0.1 | > 1 | 
Cc1cnc2c(-c3ccc(NC(=O)/C=C/CNC4COC4)cc3)c(-c3ccc(Oc4nccc(C)n4)c(F)c3)c(C(N)=O)n2c1 [Example 22] |  |  |  | 0.01 to 0.1 | < 0.01 | < 0.01 | 0.1 to 1 | 0.01 to 0.1
Cc1cnc2c(-c3ccc(NC(=O)/C=C/CN4CC(O)C4)cc3)c(-c3ccc(Oc4nccc(C)n4)c(F)c3)c(C(N)=O)n2c1 [Example 23] |  |  |  | < 0.01 | 0.01 to 0.1 | < 0.01 | 0.01 to 0.1 | 0.1 to 1

From patent US20260250291A1, “INHIBITORS OF FGFR2 AND FGFR3 AND USES THEREOF” (Insilico Medicine IP Limited, priority 2023, published 2026)
